Experimental data published in patent US20230330060A1, “COMPOUNDS FOR TREATMENT OF HEART FAILURE” (Sulfateq B.V., priority 2020, published 2023).

What was measured:
[1] = tested on: H9C2 cardiomyocytes; assay: Quantification of phenylephrine-induced EGFP synthesis as surrogate for cell size (hypertrophy); type: cell-based, rat; details: for SUL EGFP Inhibition (%): 30 μM SUL compound, calculated as 100%-Emax; for Expression of EGFP induced by phenylephrine (FIG. 3): preincubation with 30 μM compound
Method: (§1) Rat H9C2 cardiomyoblasts (ATCC CRL-1446) were maintained in DMEM medium containing 10% fetal bovine serum and 1% Penicillin-Streptomycin solution (Sigma-Aldrich) and passaged when the cultures reach a confluency of 70%. Prior to experiments, H9C2 myoblasts were differentiated to cardiomyocytes by serum reduction (to 1%) and stimulation with 20 nM retinoic acid for 5 days. Differentiated H9C2 cardiomyocytes were seeded at 0.6·10^5 cells/cm^2 for all experiments.
H9C2 cardiomyocytes (0.6·10^5 cells/cm2) were infected with CMV-copGPF (MOI 10) in culture medium without serum for 24 h. H9C2 cardiomyocytes were pre-incubated with 30 μM SUL compounds under standard culture conditions for 30 min and then stimulated with phenylephrine (dose range 2·10^−5 to 1·10^−11 M) for an additional period of 24 h. Thereafter H9C2 cardiomyocytes were lysed in 100 μl soft lysis buffer (25 mM Tris, 2 mM Dithiothreitol, 2 mM EDTA, 1% Triton X-100, pH 7.4). per well and fluorescence intensity of the obtained supernatant was recorded in a CLARIOStar Plus plate reader (BMG Labtech) equipped with a FITC filter set (excitation 488 nm with 10 nm bandwidth; emission 515 with a 20 nm bandwidth).
All experiments were performed in triplicate per condition and averaged. Data obtained from two individual experiments were used for evaluation in GraphPad Prism 8.0 (GraphPad Software Inc, Ca). Average H9C2 cardiomyocyte cell size was associated to average EGFP levels using linear regression. Phenylephrine-induced EGFP synthesis was normalized, using baseline levels as 0% and maximum EGFP recordings as 100%. All datasets were normalized to vehicle controls. 4 parameter non-linear regression was used to determine the efficacy of potency of phenylephrine to induce GFP synthesis. The efficacy of SUL compounds to inhibit phenylephrine-induced EGFP synthesis was calculated as 100%-Emax, wherein Emax is the maximal effect evoked by phenylephrine.

[2] = tested on: H9C2 cardiomyocytes; assay: Protein synthesis by H9C2 cardiomyocytes after phenylephrine; type: cell-based; details: Rattus norvegicus, FIG. 2D, read-out: EC50 for increase of protein synthesis
[3] = tested on: H9C2 cardiomyocytes; assay: Determination of cell size (cell surface area) after phenylephrine; type: cell-based, rat; details: 24 h
Method: as §1
H9C2 cardiomyocytes were serum starved for 24 h and thereafter exposed to different concentrations of phenylephrine (dose range 2·10^−5 to 1·10^−11 M) for an additional 24 h. Cells were washed in ice-cold PBS and fixed by 2% paraformaldehyde in PBS at room temperature for 10 min. Fixed cells were incubated with 5 μM Rhodamine-conjugated Phalloidin (ThermoFisher Scientific) and washed extensively with PBS. Fluorescent pictures were taken randomly with an Zeiss AxioObserver Z1 microscope and cell size was analyzed with CellProfiler software [McQuin, 2018].

SMILES | SUL EGFP Inhibition (%) [1] [%] | Expression of EGFP induced by phenylephrine (FIG. 3) [1] | further results
C[C@H]1CCC/C=C/[C@@H]2C[C@H](O)C[C@H]2[C@H](O)/C=C/C(=O)O1 [Brefeldin A, reference compound] | – | – | Phenylephrine-induced increase in EGFP fluorescence (FIG. 2F) ([1]; addition of protein synthesis inhibitor): inhibits the phenylephrine-induced increase in EGFP fluorescence
CNC[C@H](O)c1cccc(O)c1 [Phenylephrine] | – | – | EC50 [2]: 550 pM; H9C2 cardiomyocyte cell surface area ([3]; 2·10^−5 M phenylephrine, vehicle-treated control 791±263 μm^2): 3278±296 μm^2; EC50 ([3]; Rattus norvegicus, H9c2, phenylephrine 1·10^−11 to 2·10^−5 M, FIG. 2A, read-out: EC50 for increase of H9C2 cardiomyocyte cell surface area): 740 pM; EC50 ([1]; Rattus norvegicus, H9C2 cardiomyocytes transformed with CMV-EGFP lentiviral particles, FIG. 2B, read-out: EC50 for increase of EGFP fluorescence): 5200 pM
Cc1c(C)c2c(c(C)c1O)CCC(C)(C(=O)O)O2 (stereo not shown) [SUL-11, 6-hydroxy-2,5,7,8-tetramethylchroman-2-carboxylic acid (Trolox), reference compound] | 54.05 | reduced the expression of EGFP | –
Cc1c(C)c2c(c(C)c1O)CC[C@@](C)(C(=O)N[C@@H]1CCCNC1)O2 [SUL-13, (S)-6-hydroxy-2,5,7,8-tetramethyl-N-((R)-piperidin-3-yl)chromane-2-carboxamide] | 68.85 | reduced the expression of EGFP | –
COC(=O)CNC(=O)C1(C)CCc2c(C)c(O)c(C)c(C)c2O1 (stereo not shown) [SUL-99, methyl [(6-hydroxy-2,5,7,8-tetramethyl-3,4-dihydro-2H-1-benzopyran-2-carbonyl)amino]acetate, reference compound] | 55.11 | reduced the expression of EGFP | –
Cc1c(C)c2c(c(C)c1O)CC[C@@](C)(C(=O)N1CCN(CCO)CC1)O2 [SUL-138, (S)-(6-hydroxy-2,5,7,8-tetramethylchroman-2-yl)(4-(2-hydroxyethyl)piperazin-1-yl)methanone] | 63.18 | reduced the expression of EGFP | –
Cc1c(C)c(O)c(CC[C@@](C)(O)C(=O)N2CCN(CCO)CC2)c(C)c1O [SUL-138M2, 4-(2,5-dihydroxy-3,4,6-trimethylphenyl)-2-hydroxy-1-(4-(2-hydroxyethyl)piperazin-1-yl)-2-methylbutan-1-one] | 43.92 | – | –
Cc1c(C)c2c(c(C)c1O)CC[C@@](C)(C(=O)N1CCNCC1)O2 [SUL-151, (S)-(6-hydroxy-2,5,7,8-tetramethylchroman-2-yl)(piperazin-1-yl)methanone] | 56.8 | reduced the expression of EGFP | –
